{"source": "ChEMBL document CHEMBL3085693", "about": "“Discovery of a potent inhibitor of replication protein a protein-protein interactions using a fragment-linking approach” (J Med Chem, 2013)", "key": {"[1]": {"molecular_target": "T1, Replication protein A 70 kDa DNA-binding subunit (Homo sapiens, UniProt P27694)", "T1 sequence (P27694 whole entry)": "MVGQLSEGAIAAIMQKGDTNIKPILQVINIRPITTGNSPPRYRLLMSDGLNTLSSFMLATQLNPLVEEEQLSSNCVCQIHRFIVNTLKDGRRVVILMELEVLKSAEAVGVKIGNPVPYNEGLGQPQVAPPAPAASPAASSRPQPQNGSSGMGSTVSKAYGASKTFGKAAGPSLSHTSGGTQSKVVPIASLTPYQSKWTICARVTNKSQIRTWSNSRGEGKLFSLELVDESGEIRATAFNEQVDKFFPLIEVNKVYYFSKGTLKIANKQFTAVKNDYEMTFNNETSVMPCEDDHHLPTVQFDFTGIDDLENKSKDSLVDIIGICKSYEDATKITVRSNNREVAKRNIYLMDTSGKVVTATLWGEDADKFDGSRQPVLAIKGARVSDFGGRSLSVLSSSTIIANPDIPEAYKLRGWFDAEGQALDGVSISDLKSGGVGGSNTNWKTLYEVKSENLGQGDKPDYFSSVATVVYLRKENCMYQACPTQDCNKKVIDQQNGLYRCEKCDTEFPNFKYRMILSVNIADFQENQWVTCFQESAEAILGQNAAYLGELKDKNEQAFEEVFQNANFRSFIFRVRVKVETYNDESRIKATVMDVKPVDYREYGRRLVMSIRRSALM", "assay": "Binding affinity to RPA70N (1 to 120) site2 (unknown origin) expressed in Escherichia coli BL21-DE3 cells by NMR spectroscopy"}, "[2]": {"molecular_target": "T1, Replication protein A 70 kDa DNA-binding subunit", "assay": "Binding affinity to RPA70N (1 to 120) site1 (unknown origin) expressed in Escherichia coli BL21-DE3 cells by NMR spectroscopy"}, "[3]": {"molecular_target": "T1, Replication protein A 70 kDa DNA-binding subunit", "assay": "Binding affinity to RPA70N (1 to 120) (unknown origin) expressed in Escherichia coli BL21-DE3 cells by FPA assay"}, "[4]": {"molecular_target": "T1, Replication protein A 70 kDa DNA-binding subunit", "assay": "Binding affinity to RPA70N (1 to 120) (unknown origin) expressed in Escherichia coli BL21-DE3 cells by NMR spectroscopy"}, "[5]": {"molecular_target": "T1, Replication protein A 70 kDa DNA-binding subunit", "assay": "Displacement of FITC-ss-DNA from RPA70NAB domain (unknown origin) by FPA assay"}, "[6]": {"molecular_target": "T1, Replication protein A 70 kDa DNA-binding subunit", "assay": "Displacement of FITC-ATRIP2 from RPA70N (1 to 120) (unknown origin) by FPA assay"}, "[7]": {"molecular_target": "T1, Replication protein A 70 kDa DNA-binding subunit", "assay": "Displacement of FITC-ATRIP2 from RPA70NAB domain (unknown origin) by FPA assay"}, "[8]": {"molecular_target": "T1, Replication protein A 70 kDa DNA-binding subunit", "assay": "Binding affinity to RPA70NAB (unknown origin) by FPA assay"}, "[9]": {"molecular_target": "T1, Replication protein A 70 kDa DNA-binding subunit", "assay": "Displacement of FITC-ss-DNA from RPA70AB domain (unknown origin) by FPA assay"}}}
{"smiles": "O=C(O)c1cc(-c2ccc(F)cc2)n[nH]1", "values": [{"measurement": "Kd", "setting": "[1]", "result": 1120, "unit": "µM"}]}
{"smiles": "Cc1cccc2c(-c3ccccc3)c(C(=O)O)[nH]c12", "values": [{"measurement": "Kd", "setting": "[2]", "result": 640, "unit": "µM"}]}
{"smiles": "O=C(O)c1ccc(-c2ccc(F)c(Cl)c2)o1", "values": [{"measurement": "Kd", "setting": "[1]", "result": 1400, "unit": "µM"}, {"measurement": "Kd", "setting": "[2]", "result": 710, "unit": "µM"}]}
{"smiles": "Cc1cccc(-n2nc(C(=O)O)cc2-c2ccccc2)c1", "values": [{"measurement": "Kd", "setting": "[1]", "result": "> 2000", "unit": "µM"}, {"measurement": "Kd", "setting": "[2]", "result": 580, "unit": "µM"}]}
{"smiles": "CCc1c(O)[nH]c2nc3ccccc3n2c1=O", "values": [{"measurement": "Kd", "setting": "[1]", "result": 1620, "unit": "µM"}]}
{"smiles": "Cc1cccc(-n2nc(C(=O)O)cc2-c2ccc(OCc3ccc(-c4ccc(C(=O)O)o4)cc3)cc2)c1", "values": [{"measurement": "Kd", "setting": "[3]", "result": 20, "unit": "µM"}, {"measurement": "Kd", "setting": "[4]", "result": 26, "unit": "µM"}]}
{"smiles": "O=C(O)c1cc(-c2ccc(CNC(=S)c3ccc(-c4ccc(C(=O)O)o4)cc3Cl)cc2)n(-c2ccc(Cl)c(Cl)c2)n1", "values": [{"measurement": "Kd", "setting": "[5]", "result": 2.3, "unit": "µM"}, {"measurement": "Kd", "setting": "[3]", "result": 0.19, "unit": "µM"}, {"measurement": "Kd", "setting": "[6]", "result": 0.19, "unit": "µM"}, {"measurement": "Kd", "setting": "[7]", "result": 0.323, "unit": "µM"}, {"measurement": "Kd", "setting": "[8]", "result": 0.29, "unit": "µM"}, {"measurement": "Kd", "setting": "[9]", "result": 5.2, "unit": "µM"}]}
{"smiles": "O=C(O)c1cc(-c2ccc(CNC(=O)c3ccc(-c4ccc(C(=O)O)o4)cc3Cl)cc2)n(-c2ccc(Cl)c(Cl)c2)n1", "values": [{"measurement": "Kd", "setting": "[4]", "result": 2.9, "unit": "µM"}]}
